Source: US9732046B2, “Substituted 1,2,4-triazines as tubulin inhibitors” (YM Biosciences Australia Pty Ltd., priority 2003, dated 2017)

Assays:
[1] = molecular target: T1, TelJak3 (BaF3 TELJAK cells, TEL/JAK3 fusion) (Homo sapiens, UniProt P52333); experiment: Cellular growth inhibition assay (MTT), BaF3 TEL:JAK3 cell line; type: cell-based; conditions: Table 1, 40 hr incubation
T1 construct: For JAK3 Sa1 I/Not I cleaved kinase domain PCR product was ligated with BamH I/Sa1 I cleaved TELproduct; expressed in transfected cells; host or cells: BaF3 cells bearing the pTET-off plasmid, transfected with pTELJAK3 (pTRE2 vector); the other entry of the earlier key: ETV6 (P41212, Transcription factor ETV6)
Experimental: (§1) For screening purposes, compounds were diluted in 96 well plates at a concentration of 20 μM. Plates were warmed at 37° C. for 30 minutes before assay.
(§2) The coding region encompassing nucleotides 1-487 of TEL was amplified by PCR using the oligonucleotides 5TEL (5′-GGAGGATCCTGATCTCTCTCGCTGTGAGAC-3′) (SEQ ID NO: 1) and 3TEL (5′-AGGC GTCGACTTCTTCTTGATGGTTCTG-3′) (SEQ ID NO: 2) and U937 mRNA as template. A BamH I site was incorporated into the 5TEL primer, and a Sal I site was incorporated into the 3TEL primer. The regions encompassing the kinase domain of JAK2 (nucleotides 2994-3914; JAK2F 5′-ACGC GTCGACGGTGCCTTTGAAGACCGGGAT-3 (SEQ ID NO: 3); JAK2R 5′-ATAGTTTAGCGGCCGCTCAGAATGAAGGTCATTT-3′) (SEQ ID NO: 4) and JAK3 (nucleotides 2520-3469; JAK3F 5′-GAAGTCGACTATGCCTGCCAAGACCCCACGATCTT-3′ (SEQ ID NO: 5); JAK3R 5′-GGATCTAGACTATGAAAAGGACAGGGAGTGGTGTTT-3′ (SEQ ID NO: 6)) were generated by PCR using Taq DNA polymerase (Gibco/BRL) and U937 mRNA as template. A Sal I site was incorporated into the forward primer of JAK2 and JAK3, a Not I site was incorporated into the JAK2 reverse primer and a Xba I site was added to the reverse primer of JAK3.
(§3) A TEL/Jak2 fusion was generated by digestion of the TELPCR product with BamH I/Sa1 I, digestion of the JAK2 PCR product with Sa1 I/Not I followed by ligation and subcloning into the mammalian expression Vector pTRE 2 (Clontech) digested with BamH I-Not I (pTELJAK2). For JAK3 Sa1 I/Not I cleaved kinase domain PCR product was ligated with BamH I/Sa1 I cleaved TELproduct followed by ligation into BamH I/Not I cleaved pTRE2 (pTELJAK3).
(§4) The growth factor dependent myelomonocytic cell line BaF3 bearing the pTET-off plasmid (Clontech) was transfected with either pTELJAK2 or pTELJAK3 and the cells selected for factor independent growth. BaF 3 wild type cells were cultured in DMEM 10% FCS, 10% WEHI 3B conditioned medium. BaF3 TELJAK cells were cultured in DMEM 10% Tet-System Approved FBS (without WEHI 3B conditioned medium).
(§5) Cell suspensions were prepared by harvesting cells from culture. (Cells used in this test should be in later log phase growth and high viability.) Cells were diluted in correct growth medium to 1.1× final concentration (from 50000 cell/mL to 200,000 cell/mL, depending on cell line).
(§6) Compounds to be tested were added (10 μL, 10× final concentration) to a flat bottom 96-well plate. The cellular suspension (90 μL per well) was added, and the plate incubated for 40 hr at 37° C., 5% CO2. MTT (20 μL per well, 5 mg/mL in PBS) was added and the plates were returned to the incubator for a further 6 hours. Lysis buffer (100 μL per well, 10% SDS, 0.01N HCl) was added and the plate stored in the incubator overnight. The plate was then read at 590 nm.

DU145 (Prostate Cancer) = experiment: Cellular growth inhibition assay (MTT), DU145; type: cell-based; conditions: Homo sapiens, DU-145, Table 1, 40 hr incubation
Experimental: as §1
(§7) K562 (Chronic Myeloid Leukemia), PC3 (Prostate Cancer), and DU145 (Prostate Cancer) were obtained from the American Type Culture Collection (ATCC). K562 was grown in RPMI, with 10% FBS with Glutamx added. DU145 cells were cultured in DMED, with 10% FBS and Glutamx and MEM non-essential amino acids added. PC3 cells were grown in F12K medium, with 10% FBS and Glutamx and MEM non-essential amino acids added. All cells were grown at 37° C. in 5% CO2.
as §5, §6

[2] = test system: K562 (Chronic Myeloid Leukemia); experiment: Cellular growth inhibition assay (MTT), K562; type: cell-based; conditions: Homo sapiens, Table 1, 40 hr incubation
Experimental: as §1, §7, §5, §6

PC3 (Prostate Cancer) = experiment: Cellular growth inhibition assay (MTT), PC3; type: cell-based; conditions: Table 1, 40 hr incubation
Experimental: as §1, §7, §5, §6

[3] = test system: Tubulin (microtubule protein); experiment: Tubulin assay (turbidometric assay of microtubule assembly); type: biochemical; conditions: Table 1; 50 μM; absorbance at 340 nm, 37° C.
Experimental: Turbidometric assays of microtubule assembly were performed by incubating microtubule protein in cuvettes at 37° C. in a thermostatically controlled spectrophotometer measuring the change in absorbance at 340 nm over time. The microtubule protein was incubated with the each test compound at 0° C. and polymerisation was initiated by addition of 1 mM GTP, prior to heating to 37° C.

[4] = molecular target: T2, TelJak2 (BaF3 TELJAK cells, TEL/Jak2 fusion) (Homo sapiens, UniProt O60674); experiment: Cellular growth inhibition assay (MTT), BaF3 TEL:JAK2 cell line; type: cell-based; conditions: Table 1, 40 hr incubation
T2 construct: The regions encompassing the kinase domain of JAK2 (nucleotides 2994-3914); expressed in transfected cells; host or cells: BaF3 cells bearing the pTET-off plasmid, transfected with pTELJAK2 (pTRE2 vector); the other entry of the earlier key: ETV6 (P41212, Transcription factor ETV6)
Experimental: as §1, §2, §3, §4, §5, §6

T2 sequence (O60674 with tags, fused parts or gaps): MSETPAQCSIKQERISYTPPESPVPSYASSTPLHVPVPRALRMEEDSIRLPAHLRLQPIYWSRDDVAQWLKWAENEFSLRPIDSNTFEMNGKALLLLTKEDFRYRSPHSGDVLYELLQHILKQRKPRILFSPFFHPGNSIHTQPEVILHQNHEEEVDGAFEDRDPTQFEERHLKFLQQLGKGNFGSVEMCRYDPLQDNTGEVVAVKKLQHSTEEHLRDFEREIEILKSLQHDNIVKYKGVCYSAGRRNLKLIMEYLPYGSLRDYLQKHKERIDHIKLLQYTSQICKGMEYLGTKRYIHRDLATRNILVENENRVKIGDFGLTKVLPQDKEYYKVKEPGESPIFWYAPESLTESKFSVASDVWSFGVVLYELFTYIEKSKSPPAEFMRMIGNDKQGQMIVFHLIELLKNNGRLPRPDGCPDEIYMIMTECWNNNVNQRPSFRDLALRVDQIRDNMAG
T1 sequence (P52333 with tags, fused parts or gaps): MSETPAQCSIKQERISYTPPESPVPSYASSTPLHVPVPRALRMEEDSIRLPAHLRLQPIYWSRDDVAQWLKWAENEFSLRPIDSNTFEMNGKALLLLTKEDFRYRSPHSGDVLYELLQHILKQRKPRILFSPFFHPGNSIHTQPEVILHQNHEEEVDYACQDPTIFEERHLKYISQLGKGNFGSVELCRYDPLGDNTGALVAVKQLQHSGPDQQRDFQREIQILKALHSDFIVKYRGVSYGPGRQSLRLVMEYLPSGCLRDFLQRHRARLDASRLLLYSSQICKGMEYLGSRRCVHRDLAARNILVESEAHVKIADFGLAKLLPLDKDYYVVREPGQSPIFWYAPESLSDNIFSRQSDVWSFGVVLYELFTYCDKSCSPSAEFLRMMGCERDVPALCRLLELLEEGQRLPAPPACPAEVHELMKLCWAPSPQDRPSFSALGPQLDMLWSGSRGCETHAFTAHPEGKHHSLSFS

Structure (SMILES) | inhibition at 20 µM [1] | inhibition at 20 µM (DU145 (Prostate Cancer)) | inhibition at 20 µM [2] | inhibition at 20 µM (PC3 (Prostate Cancer)) | Tubulin inhibition of tubulin polymerisation [3] | inhibition at 20 µM [4]
CCCC(Nc1cncc(-c2ccc(OCCN(CC)CC)c(OC)c2)n1)c1ccccc1 (stereo not drawn) | > 50% | > 50% | > 50% | > 50% | + (compounds which inhibited tubulin polymerisation by greater than 50% at 50 μM) | > 50%
COc1cc(-c2cncc(N[C@@H](C)c3ccccc3)c2)ccc1O | > 50% | > 50% | > 50% | > 50% | + (compounds which inhibited tubulin polymerisation by greater than 50% at 50 μM) | > 50%
CCCC(Nc1cncc(-c2ccc(OCCCN(CC)CC)c(OC)c2)n1)c1ccccc1 (stereo not drawn) | > 50% | > 50% | > 50% | > 50% | + (compounds which inhibited tubulin polymerisation by greater than 50% at 50 μM) | > 50%
CCC[C@H](Nc1cc(-c2ccc(NC(=O)NCC)c(OC)c2)ncn1)c1cccnc1 | > 50% | > 50% | > 50% | > 50% | + (compounds which inhibited tubulin polymerisation by greater than 50% at 50 μM) | > 50%
CCCC(Nc1cncc(-c2ccc(NC(=O)NCCCN3CCOCC3)c(OC)c2)n1)c1cccnc1 (stereo not drawn) | > 50% | > 50% | > 50% | > 50% | + (compounds which inhibited tubulin polymerisation by greater than 50% at 50 μM) | > 50%
CCNC(=O)Nc1ccc(-c2cncc(NC(CCOC)c3ccccc3)n2)cc1OC (stereo not drawn) | > 50% | > 50% | > 50% | > 50% | + (compounds which inhibited tubulin polymerisation by greater than 50% at 50 μM) | > 50%
CCCC(Nc1cncc(-c2ccc(OCCCCN)c(OC)c2)n1)c1ccccc1 (stereo not drawn) | > 50% | > 50% | > 50% | > 50% | + (compounds which inhibited tubulin polymerisation by greater than 50% at 50 μM) | > 50%
CCCC(Nc1cncc(-c2ccc(OCCCN3CCN(C)CC3)c(OC)c2)n1)c1ccccc1 (stereo not drawn) | > 50% | > 50% | > 50% | > 50% | + (compounds which inhibited tubulin polymerisation by greater than 50% at 50 μM) | > 50%
CCCC(Nc1cncc(-c2ccc(CNC(=O)C3CCNCC3)cc2)n1)c1ccccc1 (stereo not drawn) | > 50% | > 50% | > 50% | > 50% | + (compounds which inhibited tubulin polymerisation by greater than 50% at 50 μM) | > 50%
CCCC(Nc1cncc(-c2ccc(CN)cc2)n1)c1ccccc1 (stereo not drawn) | > 50% | > 50% | > 50% | > 50% | + (compounds which inhibited tubulin polymerisation by greater than 50% at 50 μM) | > 50%
CCCC(Nc1cncc(-c2ccc(NC(=O)NCC)c(C)c2)n1)c1cccnc1 (stereo not drawn) | > 50% | > 50% | > 50% | > 50% | + (compounds which inhibited tubulin polymerisation by greater than 50% at 50 μM) | > 50%
CCCC(Nc1cncc(-c2ccc(NC(=O)NCC)c(OC)c2)n1)c1cncc(C)c1 (stereo not drawn) | > 50% | > 50% | > 50% | > 50% | + (compounds which inhibited tubulin polymerisation by greater than 50% at 50 μM) | > 50%
CCCC(Nc1cncc(-c2cc(C)c(O)c(C)c2)c1)c1ccccc1 (stereo not drawn) | > 50% | > 50% | > 50% | > 50% | + (compounds which inhibited tubulin polymerisation by greater than 50% at 50 μM) | > 50%
CCCC(Nc1cncc(-c2ccc(OCCCCN3CCN(C)CC3)c(OC)c2)n1)c1ccccc1 (stereo not drawn) | > 50% | > 50% | > 50% | > 50% | + (compounds which inhibited tubulin polymerisation by greater than 50% at 50 μM) | > 50%
CCCC(Nc1cncc(-c2ccc(OCCCCO)c(OC)c2)n1)c1ccccc1 (stereo not drawn) | > 50% | > 50% | > 50% | > 50% | + (compounds which inhibited tubulin polymerisation by greater than 50% at 50 μM) | > 50%
CCCC(Nc1cncc(-c2ccc(CNC(=O)C3CCCNC3)cc2)n1)c1ccccc1 (stereo not drawn) | > 50% | > 50% | > 50% | > 50% | + (compounds which inhibited tubulin polymerisation by greater than 50% at 50 μM) | > 50%
CCCC(Nc1cncc(-c2ccc(O)c(OC)c2)c1)c1ccccc1 (stereo not drawn) | > 50% | > 50% | > 50% | > 50% | + (compounds which inhibited tubulin polymerisation by greater than 50% at 50 μM) | > 50%
CCC[C@H](Nc1cncc(-c2ccc(NC(=O)NC)c(OC)c2)n1)c1cccnc1 | > 50% | > 50% | > 50% | > 50% | + (compounds which inhibited tubulin polymerisation by greater than 50% at 50 μM) | > 50%
